Laboratory results taken from ChEMBL document CHEMBL1201861, “Genomics of Drug Sensitity in Cancer screening data, Wellcome Trust Sanger Institute”.

How the values were obtained:
Assay in all cases: cells
HT1197 = format: functional, cell-based, Homo sapiens, HT-1197; settings: Homo sapiens, HT1197
Description: SANGER: Inhibition of human HT-1197 cell growth in a cell viability assay.

NCI-H520 = format: functional, cell-based, Homo sapiens; settings: Homo sapiens, NCI-H520;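 further: growth inhibition of NCI-H520 cells, measured by a cell viability assay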
Description: SANGER: Inhibition of human NCI-H520 cell growth in a cell viability assay.

GP5d = format: functional, cell-based, Homo sapiens; settings: Homo sapiens, GP5d;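 further: growth inhibition of human GP5d cells, read out with a cell viability assay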
Description: SANGER: Inhibition of human GP5d cell growth in a cell viability assay.

SK-NEP-1 = format: functional, cell-based; settings: Homo sapiens;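 further: growth inhibition of human SK-NEP-1 cells, read out by a cell viability assay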
Description: SANGER: Inhibition of human SK-NEP-1 cell growth in a cell viability assay.

SW756 = format: functional, cell-based, Homo sapiens; settings: Homo sapiens, SW756;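 further: growth inhibition of human SW756 cells, read out with a cell viability assay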
Description: SANGER: Inhibition of human SW756 cell growth in a cell viability assay.

DOHH-2 = format: functional, cell-based; settings: Homo sapiens;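 further: growth inhibition of human DOHH-2 cells, read out with a cell viability assay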
Description: SANGER: Inhibition of human DOHH-2 cell growth in a cell viability assay.

OVCAR-4 = format: functional, cell-based, Homo sapiens; settings: Homo sapiens, OVCAR-4;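 further: growth inhibition of human OVCAR-4 cells, measured with a cell viability assay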
Description: SANGER: Inhibition of human OVCAR-4 cell growth in a cell viability assay.

MHH-ES-1 = format: functional, cell-based, Homo sapiens; settings: Homo sapiens, MHH-ES-1;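 further: cell growth inhibition measured by a cell viability assay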
Description: SANGER: Inhibition of human MHH-ES-1 cell growth in a cell viability assay.

Calu-3 = format: functional, cell-based, Homo sapiens; settings: Homo sapiens, Calu-3;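 further: growth inhibition of human Calu-3 cells, determined with a cell viability assay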
Description: SANGER: Inhibition of human Calu-3 cell growth in a cell viability assay.

KYSE-450 = format: functional, cell-based; settings: Homo sapiens;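 further: cell growth inhibition measured by a viability assay in human KYSE-450 cells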
Description: SANGER: Inhibition of human KYSE-450 cell growth in a cell viability assay.

Ramos-2G6-4C10 = format: functional, cell-based; settings: Homo sapiens;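 further: growth inhibition of the cell line, measured by a cell viability read-out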
Description: SANGER: Inhibition of human Ramos-2G6-4C10 cell growth in a cell viability assay.

KP-4 = format: functional, cell-based, Homo sapiens; settings: Homo sapiens, KP-4; read-out: IC50;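 further: human KP-4 cells, with growth inhibition read out through a cell viability assay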
Description: SANGER: Inhibition of human KP-4 cell growth in a cell viability assay.

LK-2 = format: functional, cell-based, Homo sapiens; settings: Homo sapiens, LK-2;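 further: growth inhibition of LK-2 cells, read out with a viability assay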
Description: SANGER: Inhibition of human LK-2 cell growth in a cell viability assay.

KNS-42 = format: functional, cell-based, Homo sapiens; settings: Homo sapiens, KNS-42;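 further: growth inhibition of KNS-42 cells, read out with a cell viability assay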
Description: SANGER: Inhibition of human KNS-42 cell growth in a cell viability assay.

C-33-A = format: functional, cell-based, Homo sapiens; settings: Homo sapiens, C-33-A;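 further: cell viability assay measuring growth inhibition of C-33-A cells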
Description: SANGER: Inhibition of human C-33-A cell growth in a cell viability assay.

SKG-IIIa = format: functional, cell-based, Homo sapiens; settings: Homo sapiens, SKG-IIIa;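 further: cell growth inhibition, read out with a cell viability assay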
Description: SANGER: Inhibition of human SKG-IIIa cell growth in a cell viability assay.

PC-14 = format: functional, cell-based, Homo sapiens; settings: Homo sapiens, PC-14;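 further: cell viability assay measuring inhibition of PC-14 cell growth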
Description: SANGER: Inhibition of human PC-14 cell growth in a cell viability assay.

A2780 = format: functional, cell-based, Homo sapiens; settings: Homo sapiens, A2780;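 further: growth inhibition of A2780 cells, read out with a cell viability assay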
Description: SANGER: Inhibition of human A2780 cell growth in a cell viability assay.

A101D = format: functional, cell-based, Homo sapiens; settings: Homo sapiens, A101D;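 further: growth inhibition of the cell line, measured with a viability assay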
Description: SANGER: Inhibition of human A101D cell growth in a cell viability assay.

HMV-2 cell line = format: functional, cell-based, Homo sapiens; settings: Homo sapiens, HMV-2;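 further: growth inhibition of HMV-II cells, read out with a cell viability assay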
Description: SANGER: Inhibition of human HMV-II cell growth in a cell viability assay.

BE-13 = format: functional, cell-based; settings: Homo sapiens;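 further: growth inhibition of human BE-13 cells, measured with a cell viability assay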
Description: SANGER: Inhibition of human BE-13 cell growth in a cell viability assay.

HCC1569 = format: functional, cell-based, Homo sapiens; settings: Homo sapiens, HCC1569;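 further: growth inhibition of human HCC1569 cells, read out with a cell viability assay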
Description: SANGER: Inhibition of human HCC1569 cell growth in a cell viability assay.

HL-60 = format: functional, cell-based; settings: Homo sapiens;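 further: growth inhibition of human HL-60 cells, read out with a cell viability assay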
Description: SANGER: Inhibition of human HL-60 cell growth in a cell viability assay.

KP-N-YN = format: functional, cell-based; settings: Homo sapiens;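 further: growth inhibition of KP-N-YN cells, read out with a cell viability assay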
Description: SANGER: Inhibition of human KP-N-YN cell growth in a cell viability assay.

LCLC-103H cell line = format: functional, cell-based, Homo sapiens; settings: Homo sapiens, LCLC-103H
Description: SANGER: Inhibition of human LCLC-103H cell growth in a cell viability assay.

U-251 = format: functional, cell-based, Homo sapiens; settings: Homo sapiens, U-251;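 further: growth inhibition of human U-251 cells, read out through a cell viability assay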
Description: SANGER: Inhibition of human U251 cell growth in a cell viability assay.

LS-1034 = format: functional, cell-based, Homo sapiens; settings: Homo sapiens, LS-1034
Description: SANGER: Inhibition of human LS-1034 cell growth in a cell viability assay.

SK-UT-1 = format: functional, cell-based, Homo sapiens; settings: Homo sapiens, SK-UT-1;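 further: growth inhibition of SK-UT-1 cells, measured by a cell viability assay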
Description: SANGER: Inhibition of human SK-UT-1 cell growth in a cell viability assay.

NCI-H1838 = format: functional, cell-based, Homo sapiens; settings: Homo sapiens, NCI-H1838;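 further: growth inhibition of NCI-H1838 cells, determined with a cell viability readout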
Description: SANGER: Inhibition of human NCI-H1838 cell growth in a cell viability assay.

OMC-1 = format: functional, cell-based, Homo sapiens; settings: Homo sapiens, OMC-1;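 further: growth inhibition of the OMC-1 cell line, measured by a cell viability assay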
Description: SANGER: Inhibition of human OMC-1 cell growth in a cell viability assay.

T-24 = format: functional, cell-based, Homo sapiens; settings: Homo sapiens, T-24;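 further: growth inhibition of T-24 cells, read out with a cell viability assay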
Description: SANGER: Inhibition of human T-24 cell growth in a cell viability assay.

H4 = format: functional, cell-based; settings: Homo sapiens
Description: SANGER: Inhibition of human H4 cell growth in a cell viability assay.

A-427 = format: functional, cell-based, Homo sapiens; settings: Homo sapiens, A-427;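 further: growth inhibition of human A-427 cells, read out by a cell viability assay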
Description: SANGER: Inhibition of human A427 cell growth in a cell viability assay.

HOP-62 = format: functional, cell-based, Homo sapiens; settings: Homo sapiens, HOP-62;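 further: cell growth inhibition determined with a viability assay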
Description: SANGER: Inhibition of human HOP-62 cell growth in a cell viability assay.

NCI-H1755 = format: functional, cell-based, Homo sapiens; settings: Homo sapiens, NCI-H1755;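 further: cell viability readout used to measure growth inhibition of NCI-H1755 cells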
Description: SANGER: Inhibition of human NCI-H1755 cell growth in a cell viability assay.

MeWo = format: functional, cell-based, Homo sapiens; settings: Homo sapiens, MeWo;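 further: growth inhibition of MeWo cells, determined by a cell viability readout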
Description: SANGER: Inhibition of human Mewo cell growth in a cell viability assay.

ChaGo-K-1 = format: functional, cell-based; settings: Homo sapiens;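 further: growth inhibition of ChaGo-K-1 cells, read out with a cell viability assay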
Description: SANGER: Inhibition of human ChaGo-K-1 cell growth in a cell viability assay.

SCC-4 = format: functional, cell-based, Homo sapiens; settings: Homo sapiens, SCC-4;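 further: growth inhibition of human SCC-4 cells, read out as cell viability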
Description: SANGER: Inhibition of human SCC-4 cell growth in a cell viability assay.

SCC-9 = format: functional, cell-based, Homo sapiens; settings: Homo sapiens, SCC-9;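 further: Read-out is a cell viability assay, with values giving inhibition of cell growth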
Description: SANGER: Inhibition of human SCC-9 cell growth in a cell viability assay.

BXPC-3 = format: functional, cell-based, Homo sapiens; settings: Homo sapiens, BXPC-3;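 further: growth inhibition of human BxPC-3 cells, read out by a cell viability assay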
Description: SANGER: Inhibition of human BxPC-3 cell growth in a cell viability assay.

CaR-1 = format: functional, cell-based, Homo sapiens; settings: Homo sapiens, CaR-1;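 further: growth inhibition of human CaR-1 cancer cells, read out with a cell viability assay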
Description: SANGER: Inhibition of human CaR-1 cell growth in a cell viability assay.

SK-MES-1 = format: functional, cell-based, Homo sapiens; settings: Homo sapiens, SK-MES-1;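 further: growth inhibition of human SK-MES-1 cells, read out with a cell viability assay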
Description: SANGER: Inhibition of human SK-MES-1 cell growth in a cell viability assay.

SW1710 = format: functional, cell-based, Homo sapiens; settings: Homo sapiens, SW1710;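 further: growth inhibition of SW1710 cells, determined with a cell viability assay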
Description: SANGER: Inhibition of human SW1710 cell growth in a cell viability assay.

HCC1419 = format: functional, cell-based, Homo sapiens; settings: Homo sapiens, HCC1419;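 further: growth inhibition of human HCC1419 cells, read out as cell viability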
Description: SANGER: Inhibition of human HCC1419 cell growth in a cell viability assay.

HCC1806 = format: functional, cell-based, Homo sapiens; settings: Homo sapiens, HCC1806;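 further: growth inhibition of the cancer cell line, determined with a cell viability assay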
Description: SANGER: Inhibition of human HCC1806 cell growth in a cell viability assay.

ES3 = format: functional, cell-based, Homo sapiens; settings: Homo sapiens, ES3;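 further: growth inhibition of ES3 cells, read out with a cell viability assay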
BT-474 = format: functional, cell-based, Homo sapiens; settings: Homo sapiens, BT-474
Description: SANGER: Inhibition of human BT-474 cell growth in a cell viability assay.

UMC-11 = format: functional, cell-based, Homo sapiens; settings: Homo sapiens, UMC-11;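 further: growth inhibition of UMC-11 cells, read out with a cell viability assay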
Description: SANGER: Inhibition of human UMC-11 cell growth in a cell viability assay.

U-266 = format: functional, cell-based; settings: Homo sapiens
Description: SANGER: Inhibition of human U-266 cell growth in a cell viability assay.

NB10 = format: functional, cell-based, Homo sapiens; settings: Homo sapiens, NB10;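 further: growth inhibition of NB10 cells, read out by a cell viability assay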
Description: SANGER: Inhibition of human NB10 cell growth in a cell viability assay.

CWR22R = format: functional, cell-based, Homo sapiens; settings: Homo sapiens, 22Rv1;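 further: growth inhibition of 22Rv1 cells, read out with a cell viability assay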
Description: SANGER: Inhibition of human 22RV1 cell growth in a cell viability assay.

Measured: IC50

CN(C)C/C=C/C(=O)Nc1cc2c(Nc3ccc(F)c(Cl)c3)ncnc2cc1O[C@H]1CCOC1 [AFATINIB]
364 nM: HCC1419
56.7 nM: PC-14
59.8 nM: KYSE-450
49.9 nM: BT-474
> 500 nM: all other assays above

O=C(NOCC1CC1)c1ccc(F)c(F)c1Nc1ccc(I)cc1Cl [CI-1040]
5040 nM: H4
2910 nM: T-24
8980 nM: SK-UT-1
7340 nM: BE-13
5890 nM: NB10
214 nM: A101D
7560 nM: U-266
983 nM: GP5d
645 nM: HMV-2 cell line
1200 nM: MeWo
411 nM: HL-60
498 nM: A2780
3600 nM: A-427
8200 nM: DOHH-2
5840 nM: SK-MES-1
5620 nM: SW1710
not listed: OMC-1
> 10000 nM: all other assays above

Nc1ccn([C@@H]2O[C@H](CO)[C@@H](O)[C@@H]2O)c(=O)n1 [CYTARABINE]
965 nM: SCC-4
124 nM: HMV-2 cell line
825 nM: BE-13
199 nM: ES3
1730 nM: SW1710
78.6 nM: T-24
807 nM: SK-MES-1
274 nM: H4
461 nM: LK-2
719 nM: SW756
536 nM: KP-4
610 nM: PC-14
868 nM: Ramos-2G6-4C10
162 nM: A2780
915 nM: SKG-IIIa
1380 nM: DOHH-2
323 nM: MHH-ES-1
1240 nM: MeWo
832 nM: OMC-1
102 nM: GP5d
181 nM: SK-UT-1
191 nM: HCC1806
34.5 nM: A-427
1090 nM: KYSE-450
188 nM: NB10
551 nM: C-33-A
1130 nM: U-251
> 2000 nM: all other assays above
